Patent publication US12624018B1, “Inhibitors of RIPK2 and medical uses thereof” (Odyssey Therapeutics, Inc., priority 2022, dated 2026)
pIC50: −log10 of the molar value. Where two headings read alike, the source gives them in different places.

How the values were obtained:
[1] = molecular target: T1, RIPK2 enzyme (Homo sapiens, UniProt O43353); assay: RIPK2 inhibition (ADP-Glo Kinase Assay); format: biochemical; conditions: RIPK2 5 nM, ATP 150 μM, MBP substrate, read-out: RIPK2 IC50
T1 construct: purchased Carna 09-128
T1 sequence (O43353 1-299 limits assumed): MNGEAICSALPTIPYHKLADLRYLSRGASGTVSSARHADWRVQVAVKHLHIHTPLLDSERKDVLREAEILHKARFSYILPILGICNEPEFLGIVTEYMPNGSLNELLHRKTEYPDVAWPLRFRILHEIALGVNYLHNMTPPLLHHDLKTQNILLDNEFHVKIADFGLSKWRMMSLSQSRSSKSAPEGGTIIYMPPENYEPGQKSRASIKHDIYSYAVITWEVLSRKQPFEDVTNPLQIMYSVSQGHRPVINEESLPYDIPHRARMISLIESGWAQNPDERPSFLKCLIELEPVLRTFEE
In short: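 Human RIPK2 (5 nM) preincubated with compound 30 min at room temperature in 50 mM HEPES pH 7.5, 10 mM MgCl2, 2 mM DTT, 1 mM EGTA, 0.01% Brij-35, 0.05% BSA; native swine MBP as substrate. ADP formed quantified by ADP-Glo luminescence; percent inhibition relative to DMSO and no-enzyme controls.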

[2] = system: human NOD2 signaling; assay: Inhibition of human NOD2 signaling in HEK-Blue-hNOD2 cells (L18-MDP stimulated, SEAP reporter); format: cell-based
In short: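 HEK-Blue-hNOD2 cells (HEK293 with NOD2 and SEAP reporter), 12500/well, treated with 10-point 3-fold compound dilutions plus L18-MDP 0.5 ng/mL final, 24 h at 37 °C. Supernatant SEAP read with QUANTI-Blue after 3 h at 620 nm; IC50 by 4-parameter fit vs DMSO±L18-MDP controls.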

[3] = molecular target: T2, RIPK2 and XIAP protein-protein interaction (Homo sapiens, UniProt O43353); assay: Inhibition of the interaction of RIPK2 with XIAP (NanoBRET in HEK293T cells); format: cell-based; conditions: for pIC50: RIPK2 HaloTag / XIAP NanoLuc, read-out: NanoBRET Scaffolding IC50
T2 construct: the N-terminus of full-length RIPK2 was appended with the HaloTag fusion protein; expressed in transfected cells; host or cells: HEK293T
T2 sequence (O43353 whole entry, the tested form may be a part): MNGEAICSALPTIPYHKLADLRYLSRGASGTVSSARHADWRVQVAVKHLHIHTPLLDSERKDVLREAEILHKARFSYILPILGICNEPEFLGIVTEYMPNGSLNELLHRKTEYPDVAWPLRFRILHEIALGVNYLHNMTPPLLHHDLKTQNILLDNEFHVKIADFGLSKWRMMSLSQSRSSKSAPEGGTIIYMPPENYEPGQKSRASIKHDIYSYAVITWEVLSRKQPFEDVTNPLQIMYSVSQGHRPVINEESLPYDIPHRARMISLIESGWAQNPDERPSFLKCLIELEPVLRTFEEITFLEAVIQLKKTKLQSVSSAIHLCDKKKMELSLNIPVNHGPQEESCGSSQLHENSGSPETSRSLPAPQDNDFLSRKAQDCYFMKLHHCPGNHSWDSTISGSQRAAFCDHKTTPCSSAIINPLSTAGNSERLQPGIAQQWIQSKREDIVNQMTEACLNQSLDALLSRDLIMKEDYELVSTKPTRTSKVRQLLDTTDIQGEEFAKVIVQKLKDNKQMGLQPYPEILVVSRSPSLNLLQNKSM
Source text: An assay measuring the RIPK2 and XIAP protein-protein interaction was generated using the NanoBRET protein:protein interaction system (Promega) which measures the energy transfer from a bioluminescent protein donor (NanoLuc fusion protein) to a fluorescent protein acceptor (Halotag fusion protein). In this assay, the C-terminus of full-length XIAP was appended with the NanoLuc fusion protein and the N-terminus of full-length RIPK2 was appended with the HaloTag fusion protein. Assay medium consisted of Opti-MEM I reduced serum medium with no phenol red plus 4% heat inactivated FBS. Transfection reagents were combined in a microfuge tube as follows: 400 μL of assay medium, 8 μL of vector with N-terminus of RIPK2 HaloTag fusion protein (vector concentration at 1 μg/μL), 0.8 μL of vector with C-terminus of XIAP NanoLuc fusion protein (vector concentration at 1 μg/μL), and 24 μL of FuGENE HD transfection reagent (Promega, catalogue number E2312). […] Test compounds were prepared into a 10 mM DMSO solution and were serially diluted into 10 points using a 3-fold dilution in a 384 well plate using a TECAN EV0200.
Method: HEK293T cells were transfected with the RIPK2 HaloTag fusion and XIAP NanoLuc fusion vectors in suspension. […] Transfection reagents were pre-mixed and incubated at room temperature for 30 minutes. Then the total transfection reagent mixture was added dropwise to the 16 mL cell suspension and mixed gently. 40 μL of the cells and transfection reagent suspension was plated into a white 384 well plate and incubated at 37° C. in a CO2 incubator for 24 hours. […] Lastly, a 3× solution of NanoBRET Nano-Glo substrate in Opti-MEM I reduced serum media (no phenol red; 20 μL total volume) was added to each well and incubated for 2-3 minutes at room temperature. The plate was then measured using 460 nm filter (donor emission) and 618 nm filter (acceptor emission) in an EnVision multimode plate reader (PerkinElmer). The NanoBRET ratio values were determined by dividing the acceptor emission value by the donor emission value for each sample.

[4] = Homo sapiens, HEK-Blue hNOD2, HEK-Blue-hNOD2 cells, NOD2 ligand stimulation, SEAP reporter, read-out: hNOD2 IC50
[5] = HEK-Blue-hNOD2 cells, NOD2 ligand stimulation, SEAP reporter, read-out: hNOD2 IC50

| SMILES | pIC50 [1] | pIC50 [2, 4] | pIC50 [3] | pIC50 [2, 5] | pIC50 ([2]; Homo sapiens, HEK-Blue hNOD2, 24 h, HEK-Blue-hNOD2 cells, L18-MDP 0.5 ng/mL, 24 h, read-out: hNOD2 inhibition IC50) | inhibition of the RIPK2 and XIAP protein-protein interaction ([3]; NanoBRET) |
| --- | --- | --- | --- | --- | --- | --- |
| CNCc1nnc(-c2ccc3nccc(Oc4cc(F)c(CC(=O)Nc5cnn(C(C)(C)C)c5)cc4C)c3c2)o1 [Compound 481, N-(1-(tert-butyl)-1H-pyrazol-4-yl)-2-(2-fluoro-5-methyl-4-((6-(5-((methylamino)methyl)-1,3,4-oxadiazol-2-yl)quinolin-4-yl)oxy)phenyl)acetamide] | > 8.60 | 8.38 | 8.35 | – | – | – |
| [2H]C([2H])([2H])NC(=O)c1cc2c(Oc3cc(F)c(CC(=O)Nc4cnn(C(C)(C)C)c4)cc3C)ccnc2cc1F [Compound 494, 4-(4-(2-((1-(tert-butyl)-1H-pyrazol-4-yl)amino)-2-oxoethyl)-5-fluoro-2-methylphenoxy)-7-fluoro-N-(methyl-d3)quinoline-6-carboxamide] | > 8.60 | 9.40 | 7.69 | – | – | – |
| Cc1cc(CC(=O)Nc2cnn(C(C)(C)C)c2)c(F)cc1Oc1ccnc2ccc(S(=N)(=O)C3CC3)cc12 (single isomer, unassigned) [Compound 467, N-(1-(tert-butyl)-1H-pyrazol-4-yl)-2-(4-((6-(cyclopropane-sulfonimidoyl)quinolin-4-yl)oxy)-2-fluoro-5-methylphenyl) acetamide] | > 8.60 | – | 7.52 | 8.77 | – | – |
| Cc1cc(CC(=O)Nc2cnn(C(C)(C)C)c2)cc(Cl)c1Oc1ccnc2ccc(S(C)(=O)=O)cc12 [Compound 473, N-(1-(tert-butyl)-1H-pyrazol-4-yl)-2-(3-chloro-5-methyl-4-((6-(methylsulfonyl)quinolin-4-yl)oxy)phenyl)acetamide] | > 8.60 | 8.11 | 6.77 | – | – | – |
| CNC(=O)c1ccc2nccc(Oc3c(C)cc(CC(=O)Nc4cnn(C(C)(C)C)c4)cc3C)c2c1 [Compound 506, 4-(4-(2-((1-(tert-butyl)-1H-pyrazol-4-yl)amino)-2-oxoethyl)-2,6-dimethylphenoxy)-N-methylquinoline-6-carboxamide] | > 8.60 | 8.66 | 7.13 | – | – | – |
| Cc1cc(CC(=O)Nc2cnn(C(C)(C)C)c2)c(F)cc1Oc1ccnc2ccc(-c3c[nH]nc3C)cc12 [Compound 479, N-(1-(tert-butyl)-1H-pyrazol-4-yl)-2-(2-fluoro-5-methyl-4-((6-(3-methyl-1H-pyrazol-4-yl)quinolin-4-yl)oxy)phenyl)acetamide] | > 8.60 | 8.85 | 8.24 | – | – | – |
| Cc1cc(CC(=O)Nc2cnn(C(C)(C)C)c2)cc(C)c1Oc1ccnc2ccc(C(N)=O)cc12 [Compound 505, 4-(4-(2-((1-(tert-butyl)-1H-pyrazol-4-yl)amino)-2-oxoethyl)-2,6-dimethylphenoxy)quinoline-6-carboxamide] | > 8.60 | 8.46 | 6.89 | – | – | – |
| Cc1cc(CC(=O)Nc2cnn(C34CC(C3)C4)c2)ccc1Oc1ccnc2ccc(C(N)=O)cc12 [Compound 499, 4-(4-(2-((1-(bicyclo[1.1.1]pentan-1-yl)-1H-pyrazol-4-yl)amino)-2-oxoethyl)-2-methylphenoxy)quinoline-6-carboxamide] | > 8.60 | 8.96 | 7.66 | – | – | – |
| CNC(=O)c1ccc2nccc(Oc3cc(F)c(CC(=O)Nc4cnn(C56CC(C5)C6)c4)cc3C)c2c1 [Compound 502, 4-(4-(2-((1-(bicyclo[1.1.1]pentan-1-yl)-1H-pyrazol-4-yl)amino)-2-oxoethyl)-5-fluoro-2-methylphenoxy)-N-methylquinoline-6-carboxamide] | > 8.60 | 9.10 | 7.76 | – | – | – |
| Cc1c(Oc2ccnc3ccc(C(N)=O)cc23)cc(F)c(CC(=O)Nc2cnn(C(C)(C)C)c2)c1F [Compound 503, 4-(4-(2-((1-(tert-butyl)-1H-pyrazol-4-yl)amino)-2-oxoethyl)-3,5-difluoro-2-methylphenoxy)quinoline-6-carboxamide] | > 8.60 | 9.70 | 7.20 | – | – | – |
| CC(C)(C)n1cc(NC(=O)Cc2cc(Cl)c(Oc3ccnc4ccc(C(N)=O)cc34)cc2F)cn1 [Compound 497, 4-(4-(2-((1-(tert-butyl)-1H-pyrazol-4-yl)amino)-2-oxoethyl)-2-chloro-5-fluorophenoxy)quinoline-6-carboxamide] | > 8.60 | 9.22 | 7.97 | – | – | – |

Other lines, results leading:

| pIC50 [1] | pIC50 [2, 4] | pIC50 [3] | pIC50 [2, 5] | pIC50 ([2]; Homo sapiens, HEK-Blue hNOD2, 24 h, HEK-Blue-hNOD2 cells, L18-MDP 0.5 ng/mL, 24 h, read-out: hNOD2 inhibition IC50) | inhibition of the RIPK2 and XIAP protein-protein interaction ([3]; NanoBRET) | SMILES |
| --- | --- | --- | --- | --- | --- | --- |
| > 8.60 | 9.05 | 7.53 | – | – | – | CNC(=O)c1cc2c(Oc3c(C)cc(CC(=O)Nc4cnn(C(C)(C)C)c4)cc3Cl)ccnc2cc1F [Compound 585, 4-(4-(2-((1-(tert-butyl)-1H-pyrazol-4-yl)amino)-2-oxoethyl)-2-chloro-6-methylphenoxy)-7-fluoro-N-methylquinoline-6-carboxamide] |
| > 8.60 | – | 7.03 | 7.67 | – | – | Cc1cc(CC(=O)Nc2cnn(C34CC(C3)C4)c2)ccc1Oc1ccnc2ccc(S(=N)(=O)C3CC3)cc12 (single isomer, unassigned) [Compound 530, N-(1-(bicyclo[1.1.1]pentan-1-yl)-1H-pyrazol-4-yl)-2-(4-((6-(cyclopropanesul-fonimidoyl)quinolin-4-yl)oxy)-3-methylphenyl) acetamide] |
| > 8.60 | 8.82 | 7.57 | – | – | – | Cc1c(CC(=O)Nc2cnn(C(C)(C)C)c2)ccc(Oc2ccnc3ccc(S(C)(=O)=O)cc23)c1C [Compound 518, N-(1-(tert-butyl)-1H-pyrazol-4-yl)-2-(2,3-dimethyl-4-((6-(methylsulfonyl)quinolin-4-yl)oxy)phenyl)acetamide] |
| > 8.60 | 8.51 | 7.46 | – | – | – | Cc1cc(CC(=O)Nc2cnn(C(C)(C)C)c2)c(F)cc1Oc1ccnc2ccc(C(=O)NC34CC(C3)C4)cc12 [Compound 513, N-(bicyclo[1.1.1]pentan-1-yl)-4-(4-(2-((1-(tert-butyl)-1H-pyrazol-4-yl)amino)-2-oxoethyl)-5-fluoro-2-methylphenoxy)quinoline-6-carboxamide] |
| > 8.60 | 8.08 | 6.76 | – | – | – | CNC(=O)c1ccc2nccc(Oc3cc(F)c(CC(=O)Nc4cnn(C56CC(C5)C6)c4)cc3Cl)c2c1 [Compound 510, 4-(4-(2-((1-(bicyclo[1.1.1]pentan-1-yl)-1H-pyrazol-4-yl)amino)-2-oxoethyl)-2-chloro-5-fluorophenoxy)-N-methylquinoline-6-carboxamide] |
| – | – | – | – | < 5.00 | no inhibition | CC(C)(C)S(=O)(=O)c1cc2c(Nc3ccc4scnc4c3)ncnc2cc1OCCOP(=O)(O)O [GSK 2983559, reference compound] |
| > 8.60 | 8.72 | 6.75 | – | – | – | [2H]C([2H])([2H])NC(=O)c1ccc2nccc(Oc3cc(F)c(CC(=O)Nc4cnn(C56CC(C5)C6)c4)cc3C)c2c1 (single isomer, unassigned) [Compound 563, 4-(4-(2-((1-(bicyclo[1.1.1]pentan-1-yl)-1H-pyrazol-4-yl)amino)-2-oxoethyl)-5-fluoro-2-methylphenoxy)-N-(methyl-d3)quinoline-6-carboxamide] |
| > 8.60 | 7.95 | 6.34 | – | – | – | Cc1cc(CC(=O)Nc2cnn(C(C)(C)C)c2)c(F)cc1Oc1ccnc2ccc(CC(N)=O)cc12 [Compound 566, 2-(4-((6-(2-amino-2-oxoethyl)quinolin-4-yl)oxy)-2-fluoro-5-methylphenyl)-N-(1-(tert-butyl)-1H-pyrazol-4-yl)acetamide] |
| > 8.60 | 7.85 | 6.72 | – | – | – | NC(=O)c1ccc2nccc(Oc3cc(F)c(CC(=O)Nc4cnn(C56CC(C5)C6)c4)cc3Cl)c2c1 [Compound 509, 4-(4-(2-((1-(bicyclo[1.1.1]pentan-1-yl)-1H-pyrazol-4-yl)amino)-2-oxoethyl)-2-chloro-5-fluorophenoxy)quinoline-6-carboxamide] |
